Experimental data taken from patent publication US9029332B2, “Cross-linked peptides and proteins, methods of making same, and uses thereof” (The Research Foundation for The State University of New York, priority 2010, dated 2015).
Square brackets hold non-standard residues; d marks the D form. Peptide text beside a SMILES is read from it.

Experiments:
[1] = target: T1, full-length human MDM2 (GST-MDM2) (Homo sapiens, UniProt Q00987); assay: ELISA, inhibition of p53-MDM2 interaction; format: binding; conditions: relative to comparator linear peptide
T1 construct: GST-MDM2 and GST-MDMX containing full-length human MDM2 and MDMX; made in house; host or cells: Escherichia coli
Excerpt: FIG. 10. ELISA data of the cross-linked PDI analogs. The experiments were repeated three times and the resulting data were plotted with GraphPad Prism 5.0 to derive the average IC50 values along with standard deviations.
ELISA Assay. GST-MDM2 and GST-MDMX containing full-length human MDM2 and MDMX and His6-tagged human p53 were expressed in Escherichia coli and purified by glutathione agarose and Ni^2+-nitrilotriacetic acid beads, respectively, under non-denaturing conditions. Microtiter plates were coated with 2.5 μg/ml His6-p53 in PBS buffer for 16 hours. After washing with PBS containing 0.1% Tween-20 (PBST), the plates were blocked with PBST containing 5% nonfat dry milk (PBSTM) for 30 minutes. Peptides were dissolved in DMSO. GST-MDM2 and MDMX (5 μg/ml) were mixed with peptides in PBSMT containing 10% glycerol and 10 mM dithiolthreitol prior to their additions to the wells at the specified concentrations. The incubation was allowed to proceed for 1 hour at room temperature before the plates were washed with PBST. […] The plates were developed by incubation with TMB peroxidase substrate (KPL, Gaithersburg, Md.) and measured by absorbance at 450 nm. The data was analyzed with the Origin 6.0 software. […]

[2] = target: T2, trypsin (Sus scrofa, UniProt P00761); assay: in vitro; conditions: pig (porcine), pH 8
Method: (§1) Proteolytic stability of the linear and stapled Noxa peptides against trypsin (Type IX-S, 13,000-20,000 unit/mg, Sigma) and chymotrypsin (Type II, 40 unit/mg, Sigma). To a solution of 400 μL of 0.25 mM peptide in NH4HCO3 buffer, pH 8.0, was added 80 μL trypsin (5 μg/mL) or chymotrypsin (25 μg/mL), and the resulting solution was incubated at 37° C. At the indicated times, 40 μL of the solution was transferred to 40 μL trifluoroacetic acid to quench the reaction. The samples were analyzed by reverse-phase HPLC using benzophenone as an injection control.

[3] = target: T3, chymotrypsin (Bos taurus, UniProt P00766); assay: in vitro; conditions: cattle (bovine), pH 8
Method: as §1

[4] = Water solubility; format: physicochemical
[5] = Circular dichroism, percent helicity; format: physicochemical; conditions: compared to the linear NoxaBH3 peptide, 50 μM in 20% ACN/H2O
Method: FIG. 12. […] The peptides were dissolved in 20% ACN/H2O for a final concentration of 50 μM.
Circular Dichroism Study. […] The spectra were recorded in the wavelength range of 190-250 nm and averaged over 3 scans with a resolution of 0.5 nm, a bandwidth of 1.0 nm and a response time of 4 s. The sensitivity and the speed of the spectrometer were set to 100 mdeg and 50 nm/min, respectively. All peptides were dissolved in 20% acetonitrile/H2O to reach final concentration of 50 μM.

[6] = target: GST-Mcl-1 (Homo sapiens, UniProt Q07820); assay: Competitive fluorescence polarization assay; format: binding; conditions: Noxa peptides, three repeats ± SD; read-out: FP, IC50
Method: Competitive Florescence Polarization Assay. The binding affinity of the Noxa peptides toward GST-Mcl-1 was determined in a competitive fluorescence polarization assay with the fluorescein-labeled Bak or Bim. Briefly, fluorescein-labeled Bak was incubated with GST-Mcl-1 in a binding buffer (PBS, 0.005% Tween-20, pH7.4) at room temperature in a 96-well microtiter plate. […] The reading was repeated at various time points to ensure that the competition has reached equilibrium.

[7] = target: T2, trypsin; assay: Trypsin-mediated proteolytic stability assay
Method: as §1

[8] = target: Mcl-1 (Homo sapiens, UniProt Q07820); assay: ELISA of cross-linked Noxa peptides; format: binding
[9] = target: T3, chymotrypsin; assay: Chymotrypsin proteolytic stability assay
Method: as §1

[10] = target: Mcl-1 (Mus musculus, UniProt P97287); conditions: background literature; read-out: IC50 against Mcl-1; cited from earlier work
[11] = target: Bcl-2 (Homo sapiens, UniProt P10415); conditions: background literature; read-out: IC50 against Bcl-2; cited from earlier work
[12] = target: Bcl-xL (Homo sapiens, UniProt Q07817); conditions: background literature; read-out: IC50 against Bcl-xL; cited from earlier work
[13] = target: T4, Bcl-w (Homo sapiens, UniProt Q92843); conditions: background literature; read-out: IC50 against Bcl-w; cited from earlier work
T4 sequence (Q92843 1-193): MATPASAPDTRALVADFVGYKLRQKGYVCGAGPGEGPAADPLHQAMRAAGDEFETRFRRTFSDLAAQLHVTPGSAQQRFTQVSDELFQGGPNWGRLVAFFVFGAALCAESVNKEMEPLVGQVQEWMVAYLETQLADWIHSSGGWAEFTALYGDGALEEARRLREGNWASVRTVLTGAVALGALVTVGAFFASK

[14] = system: Bfl-1/A1; conditions: background literature; read-out: IC50 against Bfl-1/A1; cited from earlier work

T2 sequence (P00761 9-231): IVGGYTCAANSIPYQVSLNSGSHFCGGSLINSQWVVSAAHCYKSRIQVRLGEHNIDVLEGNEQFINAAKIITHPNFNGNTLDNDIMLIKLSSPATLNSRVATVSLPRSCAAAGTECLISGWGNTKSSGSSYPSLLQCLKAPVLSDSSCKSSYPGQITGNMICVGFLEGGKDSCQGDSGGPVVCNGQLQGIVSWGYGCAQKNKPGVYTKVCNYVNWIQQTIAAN
Chain of Mcl-1 (Mus musculus, UniProt P97287) (P97287 152-308 limits assumed): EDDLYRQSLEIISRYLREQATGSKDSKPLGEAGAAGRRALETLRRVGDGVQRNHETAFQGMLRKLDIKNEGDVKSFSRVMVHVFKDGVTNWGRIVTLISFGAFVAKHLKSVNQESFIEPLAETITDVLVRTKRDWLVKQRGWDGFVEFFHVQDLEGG
T1 sequence (Q00987 whole entry): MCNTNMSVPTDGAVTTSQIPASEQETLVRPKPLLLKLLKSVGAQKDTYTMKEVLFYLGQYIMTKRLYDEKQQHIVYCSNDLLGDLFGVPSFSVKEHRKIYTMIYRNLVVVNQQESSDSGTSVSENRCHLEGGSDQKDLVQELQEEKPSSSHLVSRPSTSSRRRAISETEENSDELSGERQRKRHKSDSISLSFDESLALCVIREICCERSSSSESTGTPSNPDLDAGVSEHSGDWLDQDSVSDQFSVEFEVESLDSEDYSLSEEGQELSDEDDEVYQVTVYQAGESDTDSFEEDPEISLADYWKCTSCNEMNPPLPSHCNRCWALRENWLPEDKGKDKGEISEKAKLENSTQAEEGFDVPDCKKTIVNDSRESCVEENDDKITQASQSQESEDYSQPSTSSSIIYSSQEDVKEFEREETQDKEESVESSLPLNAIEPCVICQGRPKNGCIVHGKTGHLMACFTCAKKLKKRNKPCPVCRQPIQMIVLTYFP
Chain of Bcl-2 (P10415 whole entry, species assumed): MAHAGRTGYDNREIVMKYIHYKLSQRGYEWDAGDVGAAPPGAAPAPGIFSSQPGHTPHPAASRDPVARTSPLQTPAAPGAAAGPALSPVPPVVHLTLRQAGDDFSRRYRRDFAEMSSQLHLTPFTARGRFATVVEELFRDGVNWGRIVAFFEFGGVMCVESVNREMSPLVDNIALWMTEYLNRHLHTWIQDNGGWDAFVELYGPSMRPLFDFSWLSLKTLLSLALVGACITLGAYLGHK
Chain of Mcl-1 (Homo sapiens, UniProt Q07820) (Q07820 whole entry, species assumed): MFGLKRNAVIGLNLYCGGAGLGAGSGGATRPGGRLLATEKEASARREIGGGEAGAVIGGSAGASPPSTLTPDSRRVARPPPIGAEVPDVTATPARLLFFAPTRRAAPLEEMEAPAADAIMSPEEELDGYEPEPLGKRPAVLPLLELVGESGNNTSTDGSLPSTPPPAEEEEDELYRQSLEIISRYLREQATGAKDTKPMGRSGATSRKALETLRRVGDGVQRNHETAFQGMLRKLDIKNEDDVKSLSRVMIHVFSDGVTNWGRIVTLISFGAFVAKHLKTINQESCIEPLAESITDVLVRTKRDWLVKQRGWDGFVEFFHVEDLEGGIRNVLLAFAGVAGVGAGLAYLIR
Chain of GST-Mcl-1 (Q07820 whole entry): as the sequence (Q07820 whole entry, species assumed) above
Chain of Bcl-xL (Q07817 whole entry, species assumed): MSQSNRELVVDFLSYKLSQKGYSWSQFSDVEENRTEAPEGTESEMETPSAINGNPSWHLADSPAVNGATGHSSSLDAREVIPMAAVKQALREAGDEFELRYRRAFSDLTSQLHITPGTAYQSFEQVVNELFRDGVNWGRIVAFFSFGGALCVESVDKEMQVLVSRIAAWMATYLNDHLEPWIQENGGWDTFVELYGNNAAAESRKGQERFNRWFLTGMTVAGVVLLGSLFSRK

With `CC(=O)N[C@@H](CC(C)C)C(=O)N[C@H](C(=O)N[C@@H](Cc1ccccc1)C(=O)N[C@H](CS)C(=O)N[C@@H](Cc1c[nH]cn1)C(=O)N[C@@H](Cc1ccc(O)cc1)C(=O)N[C@@H](Cc1c[nH]c2ccccc12)C(=O)N[C@@H](C)C(=O)N[C@@H](CCC(N)=O)C(=O)N[C@@H](CC(C)C)C(=O)N[C@@H](CS)C(=O)N[C@@H](CO)C(N)=O)[C@@H](C)O` [Peptide 3] (Ac-LTF[dC]HYWAQLCS-NH2; C-terminus assumed) the “increase in MDM2 activity” value [1] was “more than 3 fold”.

Compound `CC[C@H](C)[C@H](NC(=O)[C@H](CCCNC(=N)N)NC(=O)[C@H](CCCNC(=N)N)NC(=O)[C@H](CC(C)C)NC(=O)[C@H](CCC(N)=O)NC(=O)[C@H](C)NC(=O)[C@H](C)NC(C)=O)C(=O)NCC(=O)N[C@@H](CC(=O)O)C(=O)N[C@@H](CCCCN)C(=O)N[C@H](C(=O)N[C@@H](CC(N)=O)C(=O)N[C@@H](CC(C)C)C(=O)N[C@@H](CCCNC(=N)N)C(=O)N[C@@H](CCC(N)=O)C(=O)N[C@@H](CCCCN)C(=O)N[C@@H](CC(C)C)C(=O)N[C@@H](CC(C)C)C(=O)N[C@@H](CC(N)=O)C(N)=O)C(C)C` [NoxaB^75-93-C75A] has a half-life at 0.208 mM [2] of 1.8 min and a half-life at 0.208 mM [3] of 3.3 min.

With `CC[C@H](C)[C@@H]1NC(=O)[C@H](CCCNC(=N)N)NC(=O)[C@H](CCCNC(=N)N)NC(=O)[C@H](CC(C)C)NC(=O)[C@H](NC(=O)[C@H](C)NC(=O)[C@H](C)NC(C)=O)CSCc2ccc(cn2)-c2ccc(nc2)CSC[C@@H](C(=O)N[C@H](C(=O)N[C@@H](CC(N)=O)C(=O)N[C@@H](CC(C)C)C(=O)N[C@@H](CCCNC(=N)N)C(=O)N[C@@H](CCC(N)=O)C(=O)N[C@@H](CCCCN)C(=O)N[C@@H](CC(C)C)C(=O)N[C@@H](CC(C)C)C(=O)N[C@@H](CC(N)=O)C(N)=O)C(C)C)NC(=O)[C@H](CC(=O)O)NC(=O)CNC1=O` [Peptide 6b] the water solubility [4] was “better water solubility”, the “enhancement in percent helicity” value [5] was “roughly 2 fold” and the IC50 [6] was 140 ± 43 nM. The “times more stable against trypsin than parent linear peptide” value [7] was > 6 times, the half-life at 0.208 mM ([7]; pig (porcine), trypsin (Type IX-S, Sigma) in NH4HCO3 buffer, pH 8) was 11.5 min and the IC50 [8] was 140 nM. For the same compound, the “times more stable against chymotrypsin than parent linear peptide” value [9] was > 16 times and the half-life at 0.208 mM ([9]; cattle (bovine), chymotrypsin (Type II, Sigma) in NH4HCO3 buffer, pH 8) was 54 min.

For “NoxaBH3-(18-43): human Noxa BH3 peptide, residues 18-43 (PAELEVECATQLRRFGDKLNFRQKLL; UniProt Q13794 18-43, looked up, fragment)”, the IC50 [10] is listed as 24 nM, the IC50 [11] is listed as > 100000 nM and the IC50 [12] is listed as > 100000 nM. The IC50 [13] was > 100000 nM and the IC50 [14] was 180 nM.
